#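 96-well plates; 48 h exposure; 5 concentrations. Endpoints by linear interpolation between flanking doses. Not reached: highest tested concentration assigned. The concentration for 50% growth inhibition is given as GI50.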 Calls of active or inactive are those of the source. Cut-off read from the data, not from the text of the source: active = GI50 up to about 1.1 µM and inactive = higher.
# How the values were obtained:
# Test in all cases: NCI-60 cell line screen, 48 h
# [1] = system: 786-0
# [2] = system: ACHN
# [3] = system: CCRF-CEM
# [4] = system: DMS-273
# [5] = system: HCT-15
# [6] = system: HL-60
# [7] = system: HOP-62
# [8] = system: NCI-H23
# [9] = system: OVCAR-3
# [10] = system: RXF 393
# [11] = system: SK-MEL-28
# [12] = system: SK-MEL-2
# [13] = system: SK-MEL-5
# [14] = system: SN12C
# [15] = system: SNB-19
# [16] = system: SW-620
# [17] = system: DU-145
# [18] = system: MCF7
# [19] = system: MDA-N
# [20] = system: PC-3
Compound,GI50 [1],GI50 [2],GI50 [3],GI50 [4],GI50 [5] [µM],GI50 [6],GI50 [7],GI50 [8],GI50 [9],GI50 [10],GI50 [11],GI50 [12],GI50 [13],GI50 [14],GI50 [15],GI50 [16],GI50 [17],GI50 [18],GI50 [19],GI50 [20]
COC1(C)C(=O)N2C1N(C(=O)OCc1ccccc1)CC2(C)C (stereo not given),> 100 µM (inactive),> 100 µM (inactive),> 100 µM (inactive),> 100 µM (inactive),> 100,> 100 µM (inactive),> 100 µM (inactive),> 100 µM (inactive),> 100 µM (inactive),> 100 µM (inactive),> 100 µM (inactive),> 100 µM (inactive),> 100 µM (inactive),> 100 µM (inactive),> 100 µM (inactive),> 100 µM (inactive),–,–,–,–
O=C(CC1(O)C(=O)Nc2c(Cl)cc(Cl)cc21)c1ccc(F)cc1 (stereo not given),19.8 µM (inactive),35.9 µM (inactive),–,38.2 µM (inactive),30.6,–,48 µM (inactive),28.5 µM (inactive),37.6 µM (inactive),27 µM (inactive),71.6 µM (inactive),46.8 µM (inactive),–,28.4 µM (inactive),59.3 µM (inactive),43.7 µM (inactive),–,–,–,–
O=C1C(=Cc2cccs2)C(=O)N(CCc2ccccc2)S(=O)(=O)N1CCc1ccccc1,> 50 µM (inactive),22.6 µM (inactive),36.9 µM (inactive),> 50 µM (inactive),> 50,14 µM (inactive),–,> 50 µM (inactive),> 50 µM (inactive),20.7 µM (inactive),> 50 µM (inactive),> 50 µM (inactive),> 50 µM (inactive),> 50 µM (inactive),> 50 µM (inactive),> 50 µM (inactive),–,–,–,–
C=CCC1(CN(C)C)CC/C(=C\c2ccc(Cl)cc2)C1=O (stereo not given),38.1 µM (inactive),44.8 µM (inactive),15.9 µM (inactive),24.7 µM (inactive),25.1,29.9 µM (inactive),> 100 µM (inactive),47.5 µM (inactive),36.1 µM (inactive),31 µM (inactive),> 83.2 µM (inactive),> 100 µM (inactive),28.8 µM (inactive),70.1 µM (inactive),77.3 µM (inactive),26.9 µM (inactive),–,–,–,–
COC(=O)CCSC(=O)Nc1ccccc1Cl,> 100 µM (inactive),> 100 µM (inactive),58.1 µM (inactive),> 100 µM (inactive),> 100,63.1 µM (inactive),> 100 µM (inactive),> 100 µM (inactive),> 100 µM (inactive),–,> 100 µM (inactive),> 100 µM (inactive),–,> 100 µM (inactive),> 100 µM (inactive),> 100 µM (inactive),–,–,–,–
COc1ccc(-c2oc3cc(O)c(OC)c(O)c3c(=O)c2O)cc1 [BETULETOL],6.08 µM (inactive),2.77 µM (inactive),5.16 µM (inactive),9.68 µM (inactive),4.84,2.9 µM (inactive),4.73 µM (inactive),5.62 µM (inactive),9.38 µM (inactive),12 µM (inactive),20.2 µM (inactive),> 51.8 µM (inactive),6.14 µM (inactive),5.6 µM (inactive),10.1 µM (inactive),20.5 µM (inactive),2.36 µM (inactive),4.44 µM (inactive),13.7 µM (inactive),9.55 µM (inactive)
COC1OC(C)C2OC(C)(C)OC2C1OC(C)=O (stereo not given),> 100 µM (inactive),> 100 µM (inactive),> 100 µM (inactive),> 100 µM (inactive),> 100,> 100 µM (inactive),> 100 µM (inactive),> 100 µM (inactive),> 100 µM (inactive),39.7 µM (inactive),> 100 µM (inactive),–,> 100 µM (inactive),> 100 µM (inactive),> 100 µM (inactive),> 100 µM (inactive),–,–,–,–
C[C@]12CC[C@H](OCCC#N)CC1=CC[C@@H]1C2CC[C@]2(C)/C(=N/OCCC#N)CCC12 (stereo not given in full),33 µM (inactive),16.7 µM (inactive),> 100 µM (inactive),42.2 µM (inactive),> 100,2.48 µM (inactive),> 69.2 µM (inactive),10.8 µM (inactive),> 21 µM (inactive),25.4 µM (inactive),> 74.6 µM (inactive),> 50.2 µM (inactive),> 21 µM (inactive),> 100 µM (inactive),36.6 µM (inactive),> 100 µM (inactive),–,–,–,–

# Source: ChEMBL document CHEMBL1201862, “PubChem BioAssay data set” (2004)
